In paper PMC9866482, “Determination of Chemical Composition and Investigation of Biological Activities of Ocimum basilicum L” (Molecules, 2023):
Marks after values point to notes of the source that are not given here. Values belong to the compound of their own block, whether it stands above or below them.

Experiments:
[1] = target: tyrosinase (Agaricus bisporus, UniProt C7FF04); conditions: basil EOs from different cultivars, arbutin as positive control ref 111; cited from earlier work
[2] = ABTS antioxidant assay; conditions: mean of triplicates ± SD
[3] = Ferric reducing antioxidant power (FRAP) assay; conditions: mean of triplicates ± SD
[4] = parameters: method as in PMID 35926753; conditions: LPS-treated rats, oral dose 500 mg/60 kg b.w. ref 109; cited from earlier work
[5] = system: Escherichia coli ATCC 25922; experiment: Disc diffusion assay; type: cell-based; conditions: ATCC25922, disc with 10 µL EO or aqueous extract, chloramphenicol 30 µg, read-out: Diameters of the inhibition zones
Experimental: (§1) The bacterial strains were revived by inoculation in Mueller–Hinton Agar (MHA) followed by incubation at 37 °C for 24 h. A bacterial suspension (0.5 McFarland) was prepared in sterile physiologic water (0.9% NaCl) from the obtained culture. The yeast strain was inoculated in Sabouraud’s agar (SA) and incubated at 25 °C for 48 h, then a yeast suspension (0.5 McFarland) was prepared in sterile physiological water. The Fungi strains were sub-cultured in SA and incubated at 25 °C for 5 days. Afterward, the culture was washed with 2 mL of sterile physiological water. The suspension was transferred to a sterile assay tube, where the heavy particles were allowed to settle for 5 min. The upper homogeneous suspensions were transferred to a new sterile tube and adjusted microscopically to about 10^4 CFU/mL.
(§2) Briefly, the culture suspension was inoculated by swab on optimal culture media (MHA for bacteria and SA for yeasts and fungi). Afterward, six mm diameter sterile paper discs soaked in 10 µL of EO (mixed with 5% dimethyl sulfoxide (DMSO)) or aqueous extract were deposited on each plate. Chloramphenicol (30 µg) was used as a positive control for bacteria, and nystatin (100 I.U.) was used as a positive control for yeasts and fungi, while DMSO (10 µL; 5%) as a negative control. Incubation was then conducted at 37 °C for 24 h, 25 °C for 48 h, and 25 °C for 72 h for bacteria, yeasts, and fungi, respectively. After incubation, the diameters of the inhibition zones were measured in millimeters, and the results were expressed as the mean ± standard deviation (SD) of three replicates.

[6] = system: Listeria monocytogenes ATCC 13932; experiment: Disc diffusion assay; type: cell-based; conditions: ATCC13932, disc with 10 µL EO or aqueous extract, chloramphenicol 30 µg, read-out: Diameters of the inhibition zones
Experimental: as §1, §2

[7] = system: Proteus mirabilis ATCC 25933; experiment: Disc diffusion assay; type: cell-based; conditions: ATCC25933, disc with 10 µL EO or aqueous extract, chloramphenicol 30 µg, read-out: Diameters of the inhibition zones
Experimental: as §1, §2

[8] = system: Staphylococcus aureus ATCC 29213; experiment: Disc diffusion assay; type: cell-based; conditions: ATCC29213, disc with 10 µL EO or aqueous extract, chloramphenicol 30 µg, read-out: Diameters of the inhibition zones
Experimental: as §1, §2

[9] = system: Salmonella enterica Typhimurium ATCC 700408; experiment: Disc diffusion assay; type: cell-based; conditions: disc with 10 µL EO or aqueous extract, chloramphenicol 30 µg, read-out: Diameters of the inhibition zones
Experimental: as §1, §2

[10] = system: Bacillus subtilis ATCC 6633; experiment: Disc diffusion assay; type: cell-based; conditions: disc with 10 µL EO or aqueous extract, chloramphenicol 30 µg
Experimental: as §1, §2

[11] = system: Escherichia coli ATCC 25922; experiment: MIC and MBC by microdilution; type: cell-based; conditions: ATCC25922, head does not say MIC or MBC, method names the control for MIC, read-out: Controls (MIC of positive control)
Experimental: (§3) The bacterial strains were revived by inoculation in Mueller–Hinton Agar (MHA) followed by incubation at 37 °C for 24 h. A bacterial suspension (0.5 McFarland) was prepared in sterile physiologic water (0.9% NaCl) from the obtained culture. The yeast strain was inoculated in Sabouraud’s agar (SA) and incubated at 25 °C for 48 h, then a yeast suspension (0.5 McFarland) was prepared in sterile physiological water. The Fungi strains were sub-cultured in SA and incubated at 25 °C for 5 days. Afterward, the culture was washed with 2 mL of sterile physiological water. The suspension was transferred to a sterile assay tube, where the heavy particles were allowed to settle for 5 min. The upper homogeneous suspensions were transferred to a new sterile tube and adjusted microscopically to about 10^4 CFU/mL. […] The minimum inhibitory concentration (MIC) is defined as the lowest concentration of EO or extract that can inhibit the growth of microorganisms. […] Mueller–Hinton broth (MHB) (Biokar, Beauvais, France) was used for bacteria, whereas Sabouraud broth (Biokar, Beauvais, France) was employed for yeast. The incubation was carried out at 37 °C for 24 h for the bacteria and at 25 °C for 48 h for the yeasts. However, MIC determination for fungi was carried out by the gradient plate method according to the protocol previously described. Chloramphenicol was used as a positive control for bacteria, while nystatin was used for yeasts and fungi. Minimum bactericidal concentration (MBC) corresponds to the lowest EO or extract concentration that can kill the microorganism. The same microdilution experiment used in determining the MIC was used.

[12] = system: Listeria monocytogenes ATCC 13932; experiment: MIC and MBC by microdilution; type: cell-based; conditions: ATCC13932, head does not say MIC or MBC, read-out: Controls (MIC of positive control)
Experimental: as §3

[13] = system: Proteus mirabilis ATCC 25933; experiment: MIC and MBC by microdilution; type: cell-based; conditions: ATCC25933, head does not say MIC or MBC, read-out: Controls (MIC of positive control)
Experimental: as §3

[14] = system: Staphylococcus aureus ATCC 29213; experiment: MIC and MBC by microdilution; type: cell-based; conditions: ATCC29213, head does not say MIC or MBC, read-out: Controls (MIC of positive control)
Experimental: as §3

[15] = system: Salmonella enterica Typhimurium ATCC 700408; experiment: MIC and MBC by microdilution; type: cell-based; conditions: head does not say MIC or MBC, read-out: Controls (MIC of positive control)
Experimental: as §3

[16] = system: Bacillus subtilis ATCC 6633; experiment: MIC and MBC by microdilution; type: cell-based; conditions: ATCC6633, head does not say MIC or MBC, read-out: Controls (MIC of positive control)
Experimental: as §3

[17] = system: Aspergillus niger; experiment: MIC by gradient plate method, MBC; type: cell-based; conditions: head does not say MIC or MBC
Experimental: as §3, with “Chloramphenicol was used as a positive control for bacteria, while nystatin was used for yeasts and fungi. Minimum bactericidal concentration (MBC) corresponds to the lowest EO or extract concentration that can kill the microorganism. The same microdilution experiment used in determining the MIC was used.” left out

[18] = system: Trichophyton rubrum; experiment: MIC by gradient plate method, MBC; type: cell-based; conditions: head does not say MIC or MBC
Experimental: as §3, with “Chloramphenicol was used as a positive control for bacteria, while nystatin was used for yeasts and fungi. Minimum bactericidal concentration (MBC) corresponds to the lowest EO or extract concentration that can kill the microorganism. The same microdilution experiment used in determining the MIC was used.” left out

[19] = system: Candida albicans; experiment: MIC and MBC by microdilution (yeast); type: cell-based; conditions: head does not say MIC or MBC
Experimental: as §3, with “Chloramphenicol was used as a positive control for bacteria, while nystatin was used for yeasts and fungi. Minimum bactericidal concentration (MBC) corresponds to the lowest EO or extract concentration that can kill the microorganism. The same microdilution experiment used in determining the MIC was used.” left out

[20] = system: Aspergillus niger; experiment: Disc diffusion assay; type: cell-based; conditions: disc with 10 µL EO or aqueous extract, nystatin 100 I.U.
Experimental: as §1, §2

[21] = system: Candida albicans; experiment: Disc diffusion assay; type: cell-based; conditions: disc with 10 µL EO or aqueous extract, nystatin 100 I.U.
Experimental: as §1, §2

[22] = system: Trichophyton rubrum; experiment: Disc diffusion assay; type: cell-based; conditions: disc with 10 µL EO or aqueous extract, nystatin 100 I.U.
Experimental: as §1, §2

Sequence of tyrosinase (C7FF04 1-392): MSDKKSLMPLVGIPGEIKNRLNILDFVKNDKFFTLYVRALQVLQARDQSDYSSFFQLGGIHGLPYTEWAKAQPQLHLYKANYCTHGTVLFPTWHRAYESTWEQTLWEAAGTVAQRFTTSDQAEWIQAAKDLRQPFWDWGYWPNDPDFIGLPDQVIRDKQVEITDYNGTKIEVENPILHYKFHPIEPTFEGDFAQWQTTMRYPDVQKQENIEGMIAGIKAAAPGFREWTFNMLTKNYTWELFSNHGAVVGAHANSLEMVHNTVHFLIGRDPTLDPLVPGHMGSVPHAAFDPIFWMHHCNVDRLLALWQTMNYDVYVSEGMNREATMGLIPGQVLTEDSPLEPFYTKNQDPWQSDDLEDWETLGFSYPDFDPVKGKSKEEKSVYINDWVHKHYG

SMILES: OC[C@H]1O[C@@H](Oc2ccc(O)cc2)[C@H](O)[C@@H](O)[C@@H]1O [arbutin]
Tyrosinase inhibitory activity [1]: 81.5 ± 2.6%

IC50 ABTS [2]: 9.33 ± 0.07 ^c mg TEs/g | IC50 FRAP [3]: 8.52 ± 0.17 ^c mg TEs/g
SMILES: Cc1c(C)c2c(c(C)c1O)CCC(C)(C(=O)O)O2 (stereo not drawn) [Trolox]

SMILES: O=C(O)c1ccccc1 [benzoic acid]
Level of IL-1β [4]: 2.32 ± 0.28 × 10^3 pg/mL | Level of tumor necrosis factor-α (TNF-α) [4]: 5.70 ± 1.04 × 10^3 pg/mL

MIC [11]: 4 µg/mL | MIC [12]: 2 µg/mL | MIC [13]: 4 µg/mL | MIC [14]: 4 µg/mL | MIC [15]: 64 µg/mL | MIC [16]: 32 µg/mL
SMILES: O=C(N[C@H](CO)[C@H](O)c1ccc([N+](=O)[O-])cc1)C(Cl)Cl [Chloramphenicol]
zone of inhibition at 30 µg/disc [5]: 21.9 ± 0.2 mm | zone of inhibition at 30 µg/disc [6]: 27.9 ± 0.15 mm | zone of inhibition at 30 µg/disc [7]: 22.2 ± 0.15 mm | zone of inhibition at 30 µg/disc [8]: 25 ± 0.25 mm | zone of inhibition at 30 µg/disc [9]: 13.5 ± 0.15 mm | Diameters of the inhibition zones ([10]; Bacillus subtilis ATCC 6633): 15.5 ± 0.15 mm | zone of inhibition at 30 µg/disc ([10]; Bacillus subtilis, ATCC6633, Bacillus subtilis ATCC 6633, read-out: Diameters of the inhibition zones): 15.7 mm

SMILES: C[C@@H]1[C@H](O)[C@@H](C)/C=C/C=C/CC/C=C/C=C/C=C/C=C/C(O[C@H]2O[C@H](C)[C@@H](O)[C@H](N)[C@@H]2O)CC2O[C@](O)(CC(O)C(O)CCC(O)CC(O)CC(O)CC(=O)O[C@H]1C)CC(O)C2C(=O)O (stereo partly drawn) [Nystatin]
Controls (MIC of positive control) [17]: 16 µg/mL | Controls (MIC of positive control) [18]: 16 µg/mL | Controls (MIC of positive control) [19]: 4 µg/mL | Diameters of the inhibition zones [20]: 26.4 ± 0.10 mm | Diameters of the inhibition zones [21]: 29.7 ± 0.20 mm | Diameters of the inhibition zones [22]: 24.9 ± 0.26 mm
